# Measured values reported in ChEMBL document CHEMBL5726224, “Aminoester derivatives” (2017).
# pIC50, pKi: −log10 of the molar value.
# Assays:
# [1] = molecular target: 3',5'-cyclic-AMP phosphodiesterase 4B (Homo sapiens, UniProt Q07343); test: HTRF Assay: PDE4B2 activity is detected using the LANCE Ultra cAMP homogeneous time resolved fluorescence resonance energy transfer (TR-FRET) assay from Perkin Elmer. The assay is based on the competition between the europium (Eu) chelate-labeled cAMP tracer and sample cAMP for binding sites on cAMP-specific monoclonal antibodies (mAb) labelled with the ULight¿ dye. The assay is carried out in 384-well low volume plates in a volume of 10 μl. Human recombinant PDE4B2 (80 pM) is incubated for 2 h with 3 nM cAMP in buffer containing 1×HBSS, 5 mM HEPES, 3 mM MgCl2, 0.1% BSA, pH 7.4 with or without test compounds. The enzymatic reactions are efficiently stopped by the addition of 500 μM IBMX present in the combined Stop/Detection buffer containing europium (Eu) chelate-labeled cAMP tracer and cAMP-specific monoclonal antibodies (mAb) labelled with the ULight¿ dye. […] IC50 values are determined from competition curves using a non-linear curve fitting program.
# Chain of 3',5'-cyclic-AMP phosphodiesterase 4B (Q07343 whole entry): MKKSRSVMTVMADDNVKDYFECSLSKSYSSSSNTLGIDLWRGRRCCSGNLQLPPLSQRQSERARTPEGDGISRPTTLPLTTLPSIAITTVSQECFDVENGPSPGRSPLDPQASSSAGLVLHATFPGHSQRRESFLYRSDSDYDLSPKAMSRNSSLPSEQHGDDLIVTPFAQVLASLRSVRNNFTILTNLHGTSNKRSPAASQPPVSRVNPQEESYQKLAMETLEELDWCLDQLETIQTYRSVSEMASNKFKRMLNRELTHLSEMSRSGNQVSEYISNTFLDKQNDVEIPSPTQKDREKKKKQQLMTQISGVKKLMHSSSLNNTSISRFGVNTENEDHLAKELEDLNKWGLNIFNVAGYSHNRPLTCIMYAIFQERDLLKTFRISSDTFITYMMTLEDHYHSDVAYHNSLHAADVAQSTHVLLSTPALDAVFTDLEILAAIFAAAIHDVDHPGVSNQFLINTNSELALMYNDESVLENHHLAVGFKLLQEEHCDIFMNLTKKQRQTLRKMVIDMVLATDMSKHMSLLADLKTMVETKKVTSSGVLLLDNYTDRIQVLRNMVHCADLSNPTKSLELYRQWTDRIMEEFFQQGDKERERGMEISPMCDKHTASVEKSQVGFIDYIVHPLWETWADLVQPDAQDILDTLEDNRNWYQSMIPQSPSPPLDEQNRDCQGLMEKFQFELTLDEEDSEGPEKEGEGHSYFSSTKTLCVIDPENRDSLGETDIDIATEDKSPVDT
# [2] = molecular target: Muscarinic acetylcholine receptor M3 (Homo sapiens, UniProt P20309); test: The assay is carried out in 96-well polypropylene plates in a volume of 250 μl. […] The final assay concentration of DMSO is 0.5% (v/v). The plates are sealed and incubated for 2 h at room temperature on an orbital shaker (slow speed). Membranes are harvested onto 96-well unifilter GF/C filter plates pre-treated with 0.5% polyethyleneimine (v/v), using a filter manifold, washed four times with 200 μl of assay buffer. The plates are dried before addition of 50 μl of microscint-0, sealed then read in a Trilux Microbeta scintillation counter. IC50 values are determined from competition curves using a non-linear curve fitting program. Ki values are calculated from IC50 values by the Cheng and Prusoff equation.
# Chain of Muscarinic acetylcholine receptor M3 (P20309 whole entry): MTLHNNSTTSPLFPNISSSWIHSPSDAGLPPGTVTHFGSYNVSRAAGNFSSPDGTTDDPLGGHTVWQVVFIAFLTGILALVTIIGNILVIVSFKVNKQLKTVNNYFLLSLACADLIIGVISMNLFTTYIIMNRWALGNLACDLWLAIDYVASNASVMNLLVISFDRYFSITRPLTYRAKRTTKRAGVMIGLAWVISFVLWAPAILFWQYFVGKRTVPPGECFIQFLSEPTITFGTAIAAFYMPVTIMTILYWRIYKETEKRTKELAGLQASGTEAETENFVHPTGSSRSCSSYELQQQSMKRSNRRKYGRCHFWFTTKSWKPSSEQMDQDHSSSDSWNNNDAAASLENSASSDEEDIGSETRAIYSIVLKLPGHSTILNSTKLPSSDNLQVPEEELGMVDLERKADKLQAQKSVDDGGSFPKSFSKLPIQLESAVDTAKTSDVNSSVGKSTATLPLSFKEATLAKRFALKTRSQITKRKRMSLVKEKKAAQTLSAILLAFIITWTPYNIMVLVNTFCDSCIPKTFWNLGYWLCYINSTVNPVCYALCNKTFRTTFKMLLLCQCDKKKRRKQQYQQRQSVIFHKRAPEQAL
SMILES,pIC50 [1],pIC50 [2],pKi [2]
COc1ccc([C@H](Cc2c(Cl)c[n+]([O-])cc2Cl)OC(=O)c2ccc(CNC(C(=O)OCC3CCN(C)CC3)c3cccc(O)c3)s2)cc1OC (stereo partly specified),> 9.00,–,–
COc1ccc([C@H](Cc2c(Cl)c[n+]([O-])cc2Cl)OC(=O)c2ccc(CNC(C)(C(=O)OCC3CCN(C)CC3)c3ccccc3)s2)cc1OC (stereo partly specified),> 9.00,–,–
CCOc1cc(C(Cc2c(Cl)c[n+]([O-])cc2Cl)OC(=O)c2ccc(CNC(C(=O)OCC3CCN(C)CC3)c3ccccc3)s2)ccc1OC (stereo unspecified),> 9.00,–,–
COc1ccc(C(Cc2c(Cl)c[n+]([O-])cc2Cl)OC(=O)c2ccc(CNC(C(=O)OCC3CCN(C)CC3)c3ccccc3)s2)cc1OCC1CC1 (stereo unspecified),> 9.00,–,–
COc1ccc([C@H](Cc2c(Cl)c[n+]([O-])cc2Cl)OC(=O)c2ccc(CNC(C(=O)OC[C@H]3CCCCN3C)c3ccccc3)s2)cc1OC (stereo partly specified),> 9.00,–,–
COc1ccc([C@H](Cc2c(Cl)c[n+]([O-])cc2Cl)OC(=O)c2ccc(CNC(C(=O)OCC3CCN(C)CC3)c3ccccc3F)s2)cc1OC (stereo partly specified),> 9.00,–,–
COc1ccc([C@H](Cc2c(Cl)c[n+]([O-])cc2Cl)OC(=O)c2ccc(CNC(C(=O)OC[C@H]3CCCN(C)C3)c3ccccc3)s2)cc1OC (stereo partly specified),> 9.00,–,–
COc1ccc([C@H](Cc2c(Cl)c[n+]([O-])cc2Cl)OC(=O)c2ccc(CNC(CO)(C(=O)OC[C@H]3CCN(C)C3)c3ccccc3)s2)cc1OC (stereo partly specified),> 9.00,> 9.00,–
COc1ccc([C@H](Cc2c(Cl)c[n+]([O-])cc2Cl)OC(=O)c2ccc(CNC(CO)(C(=O)OC[C@@H]3CCN(C)C3)c3ccccc3)s2)cc1OC (stereo partly specified),–,> 9.00,–
COc1ccc([C@H](Cc2c(Cl)c[n+]([O-])cc2Cl)OC(=O)c2ccc(CNC(C(=O)OC[C@H]3CCN(C)C3)c3ccccc3)s2)cc1OC (stereo partly specified),–,–,9.23
